Laboratory results: PMC3302575 (Biochemistry, 2011)

What was measured:
Test in all cases: copurification, absorption spectroscopy of native protein
Type in all cases: binding
[1] = target: A. thaliana CRY2 (AtCRY2) (Arabidopsis thaliana, UniProt Q96524); conditions: Sf21 medium with or without F0; pH 7.4
zebrafish CRY4 (ZfCRY4) = target: T1, zebrafish CRY4 (ZfCRY4) (Danio rerio, UniProt Q9I912); conditions: Sf21 medium with or without F0; pH 7.5
T1 sequence (Q9I912 1-558): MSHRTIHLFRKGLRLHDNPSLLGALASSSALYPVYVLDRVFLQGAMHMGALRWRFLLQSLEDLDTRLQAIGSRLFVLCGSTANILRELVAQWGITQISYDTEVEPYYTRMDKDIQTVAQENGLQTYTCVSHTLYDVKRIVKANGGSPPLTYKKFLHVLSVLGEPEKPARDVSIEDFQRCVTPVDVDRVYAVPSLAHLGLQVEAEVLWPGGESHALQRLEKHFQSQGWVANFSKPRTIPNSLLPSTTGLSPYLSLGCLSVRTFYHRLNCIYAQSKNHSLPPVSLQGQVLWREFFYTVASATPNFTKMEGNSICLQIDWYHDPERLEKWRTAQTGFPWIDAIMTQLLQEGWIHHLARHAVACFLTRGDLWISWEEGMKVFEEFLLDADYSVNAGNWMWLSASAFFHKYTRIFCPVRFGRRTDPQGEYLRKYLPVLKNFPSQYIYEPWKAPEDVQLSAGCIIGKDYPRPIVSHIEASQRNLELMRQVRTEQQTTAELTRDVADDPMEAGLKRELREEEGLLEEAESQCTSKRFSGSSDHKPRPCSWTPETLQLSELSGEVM

[2] = target: Drosophila cryptochrome (DmCRY) (Drosophila melanogaster, UniProt O77059); conditions: Sf21 medium with or without F0; pH 7.5
Chain of Drosophila cryptochrome (DmCRY) (O77059 whole entry): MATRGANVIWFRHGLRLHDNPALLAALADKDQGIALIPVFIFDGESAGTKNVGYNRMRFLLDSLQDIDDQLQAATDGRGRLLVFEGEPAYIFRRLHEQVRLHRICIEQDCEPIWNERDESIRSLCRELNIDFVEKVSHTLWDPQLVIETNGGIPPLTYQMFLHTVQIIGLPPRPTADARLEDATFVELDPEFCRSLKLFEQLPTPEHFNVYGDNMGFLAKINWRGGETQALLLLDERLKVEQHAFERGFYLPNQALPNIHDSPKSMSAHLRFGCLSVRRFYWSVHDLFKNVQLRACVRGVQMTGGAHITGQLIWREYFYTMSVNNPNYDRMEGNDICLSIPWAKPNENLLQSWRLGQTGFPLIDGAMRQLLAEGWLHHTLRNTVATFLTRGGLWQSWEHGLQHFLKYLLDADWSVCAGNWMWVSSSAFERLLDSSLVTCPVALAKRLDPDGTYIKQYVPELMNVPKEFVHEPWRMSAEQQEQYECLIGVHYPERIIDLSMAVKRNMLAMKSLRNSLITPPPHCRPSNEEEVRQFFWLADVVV

Chain of A. thaliana CRY2 (AtCRY2) (Q96524 whole entry): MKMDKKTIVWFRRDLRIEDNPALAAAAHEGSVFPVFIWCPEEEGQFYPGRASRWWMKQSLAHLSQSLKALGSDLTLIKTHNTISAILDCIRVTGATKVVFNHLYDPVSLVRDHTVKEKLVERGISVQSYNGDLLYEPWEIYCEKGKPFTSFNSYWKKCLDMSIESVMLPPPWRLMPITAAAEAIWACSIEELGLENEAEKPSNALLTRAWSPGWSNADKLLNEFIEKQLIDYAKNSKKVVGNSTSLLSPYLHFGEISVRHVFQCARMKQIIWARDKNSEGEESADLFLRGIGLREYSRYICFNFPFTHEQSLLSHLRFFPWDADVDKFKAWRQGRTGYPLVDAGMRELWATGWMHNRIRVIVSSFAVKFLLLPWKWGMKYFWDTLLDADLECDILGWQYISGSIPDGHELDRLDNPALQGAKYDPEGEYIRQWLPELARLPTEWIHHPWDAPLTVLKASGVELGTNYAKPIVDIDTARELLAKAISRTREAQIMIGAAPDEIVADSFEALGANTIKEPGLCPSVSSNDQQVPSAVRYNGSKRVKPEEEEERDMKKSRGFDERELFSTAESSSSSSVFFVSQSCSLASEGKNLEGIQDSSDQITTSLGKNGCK

Cc1cc2nc3c(=O)[nH]c(=O)nc-3n(C[C@H](O)[C@H](O)[C@H](O)COP(=O)(O)OP(=O)(O)OC[C@H]3O[C@@H](n4cnc5c(N)ncnc54)[C@H](O)[C@@H]3O)c2cc1C [FAD]
copurification, absorption spectroscopy of native protein [1]: both AtCRY2 (A,B) and ZfCRY4 (C,D), expressed with and without F0, contained FAD
copurification, absorption spectroscopy of native protein (zebrafish CRY4 (ZfCRY4)): both AtCRY2 (A,B) and ZfCRY4 (C,D), expressed with and without F0, contained FAD
copurification, absorption spectroscopy of native protein [2]: exhibited only the spectra of enzyme-bound FAD (Fig. 4E,F)
